Reference: patent US4486586A, “Cephalosporin derivatives” (Bristol-Myers Company, priority 1983, dated 1984)
In brackets after ≈: the same amount, converted by molar mass.

Experiments:
[1] = tested on: Cephalothinresistant E. coli and Kl. pneumoniae; assay: MIC, two-fold serial agar dilution in Mueller-Hinton agar, group (G-)-Ib; assay type: cell-based, E. coli (3 strains) and Kl. pneumoniae (3 strains); conditions: read-out: Geometric Mean of MIC, (G-)-Ib
Description: (§1) In the primary evaluation of the compounds of this invention, the Minimum Inhibitory Concentrations (MIC's) of the compounds were determined by the two-fold serial agar dilution method in Mueller-Hinton agar against 32 strains of test organisms in six groups.
(G-)Ib: Cephalothinresistant E. coli (3 strains) and Kl. pneumoniae (3

[2] = tested on: Cephalothinsensitive E. coli, Kl. pneumoniae and Pr. mirabilis; assay: MIC, two-fold serial agar dilution in Mueller-Hinton agar, group (G-)-Ia; assay type: cell-based; conditions: cephalothin-sensitive E. coli, 5 strains, read-out: Geometric Mean of MIC, (G-)-Ia
Description: as §1
(G-)Ia: Cephalothinsensitive E. coli (2 strains), Kl. pneumoniae (1
strain) and Pr. mirabilis (2 strains)

[3] = tested on: Penicillinresistant S. aureus; assay: MIC, two-fold serial agar dilution in Mueller-Hinton agar, group (G+)-Ib; assay type: cell-based; conditions: Staphylococcus aureus, penicillin-resistant S. aureus, 5 strains, read-out: Geometric Mean of MIC, (G+)-Ib
Description: as §1
(G+)Ib: Penicillinresistant S. aureus (5

[4] = tested on: Penicillinsensitive S. aureus; assay: MIC, two-fold serial agar dilution in Mueller-Hinton agar, group (G+)-Ia; assay type: cell-based; conditions: Staphylococcus aureus, penicillin-sensitive S. aureus, 5 strains, read-out: Geometric Mean of MIC, (G+)-Ia
Description: as §1

Ps. aeruginosa = assay: MIC, two-fold serial agar dilution in Mueller-Hinton agar, group (G-)-III; assay type: cell-based; conditions: Pseudomonas aeruginosa, 7 strains, read-out: Geometric Mean of MIC, (G-)-III
Description: as §1
(G-)III: Ps. aeruginosa (7 strains)

[5] = tested on: M. morganii, Ent. cloacae and Ser. marcescens; assay: MIC, two-fold serial agar dilution in Mueller-Hinton agar, group (G-)-II; assay type: cell-based; conditions: 5 strains, read-out: Geometric Mean of MIC, (G-)-II
Description: as §1
(G-)II: M. morganii (1 strain), Ent. cloacae (2 strains) andSer.

Row | SMILES | MIC [1] [µg/mL] | MIC [2] [µg/mL] | MIC [3] [µg/mL] | MIC [4] [µg/mL] | MIC (Ps. aeruginosa) [µg/mL] | MIC [5] [µg/mL]
1 | CO/N=C(\C(=O)NC1C(=O)N2C(C(=O)[O-])=C(/C=C/C[N+]3(C)CCCC3)CS[C@H]12)c1csc(N)n1 (stereo partly shown) [Compound I-1A, 7-[(Z)-2-(2-Aminothiazol-4-yl)-2-methoxyiminoacetamido]-3-[(E)-3-(1-methylpyrrolidinio)-1-propen-1-yl]-3-cephem-4-carboxylate] | 0.11 (≈ 0.217 µM) | 0.021 (≈ 0.0415 µM) | 0.59 (≈ 1.16 µM) | 0.22 (≈ 0.434 µM) | 5.1 (≈ 10.1 µM) | 0.13 (≈ 0.257 µM)
2 | CO/N=C(\C(=O)NC1C(=O)N2C(C(=O)[O-])=C(/C=C/C[n+]3ccccc3)CS[C@H]12)c1csc(N)n1 (stereo partly shown) [Compound I-1B, 7-[(Z)-2-(2-Aminothiazol-4-yl)-2-methoxyiminoacetamido]-3-[(E)-3-pyridinio-1-propen-1-yl]-3-cephem-4-carboxylate] | 0.05 (≈ 0.0999 µM) | 0.012 (≈ 0.024 µM) | 0.52 (≈ 1.04 µM) | 0.2 (≈ 0.4 µM) | 5.7 (≈ 11.4 µM) | 0.1 (≈ 0.2 µM)
3 | CO/N=C(\C(=O)NC1C(=O)N2C(C(=O)[O-])=C(/C=C/C[N+](C)(C)C)CS[C@H]12)c1csc(N)n1 (stereo partly shown) [Compound I-1D, 7-[(Z)-2-(2-Aminothiazol-4-yl)-2-methoxyiminoacetamido]-3-[(E)-3-trimethylammonio-1-propen-1-yl]-3-cephem-4-carboxylate] | 0.074 (≈ 0.154 µM) | 0.0093 (≈ 0.0194 µM) | 0.59 (≈ 1.23 µM) | 0.17 (≈ 0.354 µM) | 3.1 (≈ 6.45 µM) | 0.1 (≈ 0.208 µM)
4 | CO/N=C(\C(=O)NC1C(=O)N2C(C(=O)[O-])=C(/C=C/C[n+]3cccc(N)c3)CS[C@H]12)c1csc(N)n1 (stereo partly shown) [Compound I-1E, 7-[(Z)-2-(2-Aminothiazol-4-yl)-2-methoxyiminoacetamido]-3-[(E)-3-(3-aminopyridinio)-1-propen-1-yl]-3-cephem-4-carboxylate] | 0.05 (≈ 0.097 µM) | < 0.0053 | 0.3 (≈ 0.582 µM) | 0.1 (≈ 0.194 µM) | 5.7 (≈ 11.1 µM) | 0.043 (≈ 0.0834 µM)
5 | CO/N=C(\C(=O)NC1C(=O)N2C(C(=O)[O-])=C(/C=C/C[N+]3(C)CC=CC3)CS[C@H]12)c1csc(N)n1 (stereo partly shown) [Compound I-1F, 7-[(Z)-2-(2-Aminothiazol-4-yl)-2-methoxyiminoacetamido]-3-[(E)-3-(1-methyl-3-pyrrolinio)-1-propen-1-yl]-3-cephem-4-carboxylate] | 0.074 (≈ 0.147 µM) | 0.014 (≈ 0.0277 µM) | 0.39 (≈ 0.773 µM) | 0.15 (≈ 0.297 µM) | 3.1 (≈ 6.14 µM) | 0.1 (≈ 0.198 µM)
6 | CO/N=C(\C(=O)NC1C(=O)N2C(C(=O)[O-])=C(/C=C/C[n+]3ccsc3SC)CS[C@H]12)c1csc(N)n1 (stereo partly shown) [Compound I-1G, 7-[(Z)-2-(2-Aminothiazol-4yl)-2-methoxyiminoacetamido]-3-[(E)-3-(2-methylthio-3-thiazolio)-1-propen-1-yl]-3-cephem-4-carboxylate] | 0.074 (≈ 0.134 µM) | 0.014 (≈ 0.0253 µM) | 0.39 (≈ 0.706 µM) | 0.15 (≈ 0.271 µM) | 7.6 (≈ 13.8 µM) | 0.085 (≈ 0.154 µM)
7 | CO/N=C(\C(=O)NC1C(=O)N2C(C(=O)[O-])=C(/C=C/C[n+]3ccsc3C)CS[C@H]12)c1csc(N)n1 (stereo partly shown) [Compound I-1H, 7-[(Z)-2-(2-Aminothiazol-4-yl)-2-methoxyiminoacetamido]-3-[(E)-3-(2-methyl-3-thiazolio)-1-propen-1-yl]-3-cephem-4-carboxylate] | 0.05 (≈ 0.096 µM) | 0.0093 (≈ 0.0179 µM) | 0.3 (≈ 0.576 µM) | 0.1 (≈ 0.192 µM) | 5.7 (≈ 10.9 µM) | 0.074 (≈ 0.142 µM)
8 | CO/N=C(\C(=O)NC1C(=O)N2C(C(=O)[O-])=C(/C=C/C[n+]3ccc(N)cc3)CS[C@H]12)c1csc(N)n1 (stereo partly shown) [Compound I-1I, 7-[(Z)-2-(2-Aminothiazol-4-yl)-2-methoxyiminoacetamido]-3-[(E)-3-(4-amino-1-pyridinio)-1-propen-1-yl]-3-cephem-4-carboxylate] | 0.1 (≈ 0.194 µM) | < 0.016 | 0.34 (≈ 0.659 µM) | 0.11 (≈ 0.213 µM) | > 25 | 0.15 (≈ 0.291 µM)
9 | CO/N=C(\C(=O)NC1C(=O)N2C(C(=O)[O-])=C(/C=C/C[n+]3ccc(C(N)=O)cc3)CS[C@H]12)c1csc(N)n1 (stereo partly shown) [Compound I-1J, 7-[(Z)-2-(2-Aminothiazol-4-yl)-2-methoxyiminoacetamido]-3-[(E)-3-(4-carbamoyl-1-pyridinio)-1-propen-1-yl]-3-cephem-4-carboxylate] | 0.11 (≈ 0.202 µM) | 0.016 (≈ 0.0294 µM) | 0.61 (≈ 1.12 µM) | 0.26 (≈ 0.478 µM) | 5.7 (≈ 10.5 µM) | 0.13 (≈ 0.239 µM)
10 | CC(C)(O/N=C(\C(=O)NC1C(=O)N2C(C(=O)[O-])=C(/C=C/C[N+]3(C)CCCC3)CS[C@H]12)c1csc(N)n1)C(=O)O (stereo partly shown) [Compound I-4A, 7-[(Z)-2-(2-Aminothiazol-4-yl)-2-(2-carboxy-2-propoxyimino)acetamido]-3-[(E)-3-(1-methylpyrrolidinio)-1-propen-1-yl]-3-cephem-4-carboxylate] | 0.2 (≈ 0.346 µM) | 0.036 (≈ 0.0622 µM) | 4.1 (≈ 7.09 µM) | 2.3 (≈ 3.97 µM) | 2.3 (≈ 3.97 µM) | 0.17 (≈ 0.294 µM)
11 | CC(C)(O/N=C(\C(=O)NC1C(=O)N2C(C(=O)[O-])=C(/C=C/C[n+]3ccccc3)CS[C@H]12)c1csc(N)n1)C(=O)O (stereo partly shown) [Compound I-4B, 7-[(Z)-2-(2-Aminothiazol-4-yl)-2-(2-carboxy-2-propoxyimino)acetamido]-3-[(E)-3-pyridinio-1-propen-1-yl]-3-cephem-4-carboxylate] | 0.37 (≈ 0.646 µM) | 0.046 (≈ 0.0803 µM) | 15 (≈ 26.2 µM) | 6 (≈ 10.5 µM) | 5 (≈ 8.73 µM) | 0.41 (≈ 0.716 µM)
12 | CSc1scc[n+]1C/C=C/C1=C(C(=O)[O-])N2C(=O)C(NC(=O)/C(=N\OC(C)(C)C(=O)O)c3csc(N)n3)[C@H]2SC1 (stereo partly shown) [Compound I-4G, 7-[(Z)-2-(2-Aminothiazol-4-yl)-2-(2-carboxy-2-propoxyimino)acetamido]-3-[(E)-3-(2-methylthio-3-thiazolio)-1-propen-1-yl]-3-cephem-4-carboxylate] | 0.22 (≈ 0.352 µM) | 0.021 (≈ 0.0336 µM) | 5.4 (≈ 8.64 µM) | 1.8 (≈ 2.88 µM) | 3.5 (≈ 5.6 µM) | 0.2 (≈ 0.32 µM)
13 | C[N+]1(C/C=C/C2=C(C(=O)[O-])N3C(=O)C(NC(=O)/C(=N\OC4(C(=O)O)CCC4)c4csc(N)n4)C3SC2)CCCC1 (stereo not shown) [Compound I-5A] | 0.23 (≈ 0.389 µM) | 0.038 (≈ 0.0643 µM) | 4.7 (≈ 7.96 µM) | 1.8 (≈ 3.05 µM) | 2.6 (≈ 4.4 µM) | 0.26 (≈ 0.44 µM)
14 | Nc1nc(/C(=N/OC2(C(=O)O)CCC2)C(=O)NC2C(=O)N3C(C(=O)[O-])=C(/C=C/C[n+]4ccccc4)CS[C@H]23)cs1 (stereo partly shown) [Compound I-5B, 7-[(Z)-2-(2-Aminothiazol-4-yl)-2-(1-carboxycyclobut-1-oxyimino)acetamido]-3-[(E)-3-pyridinio-1-propen-1-yl]-3-cephem-4-carboxylate] | 0.23 (≈ 0.393 µM) | 0.019 (≈ 0.0325 µM) | 4.7 (≈ 8.04 µM) | 1.6 (≈ 2.74 µM) | 2 (≈ 3.42 µM) | 0.17 (≈ 0.291 µM)
15 | Nc1nc(/C(=N/OC2(C(=O)O)CCC2)C(=O)NC2C(=O)N3C(C(=O)[O-])=C(/C=C/C[n+]4ccc5sc(N)nc5c4)CS[C@H]23)cs1 (stereo partly shown) [Compound I-5C, 7-[(Z)-2-(2-Aminothiazol-4-yl)-2-(1-carboxycyclobut-1-oxyimino)acetamido]-3-[(E)-3-(2-amino-5-thiazolo[4,5-c]pyridinio)-1-propen-1-yl]-3-cephem-4-carboxylate] | 0.15 (≈ 0.228 µM) | 0.015 (≈ 0.0228 µM) | 4.4 (≈ 6.7 µM) | 1.3 (≈ 1.98 µM) | 2.7 (≈ 4.11 µM) | 0.14 (≈ 0.213 µM)
16 | Nc1ccc[n+](C/C=C/C2=C(C(=O)[O-])N3C(=O)C(NC(=O)/C(=N\OC4(C(=O)O)CCC4)c4csc(N)n4)[C@H]3SC2)c1 (stereo partly shown) [Compound I-5E, 7-[(Z)-2-(2-Aminothiazol-4-yl)-2-(1-carboxycyclobut-1-oxyimino)acetamido]-3-[(E)-3-(3-amino-1-pyridinio)-1-propen-1-yl]-3-cephem-4-carboxylate] | – | 0.016 (≈ 0.0267 µM) | 3.1 (≈ 5.17 µM) | 1.2 (≈ 2 µM) | 1.9 (≈ 3.17 µM) | 0.15 (≈ 0.25 µM)
17 | C[N+]1(C/C=C/C2=C(C(=O)[O-])N3C(=O)C(NC(=O)/C(=N\OC4(C(=O)O)CCC4)c4csc(N)n4)[C@H]3SC2)CC=CC1 (stereo partly shown) [Compound I-5F, 7-[(Z)-2-(2-Aminothiazol-4-yl)-2-(1-carboxycyclobut-1-oxyimino)acetamido]-3-[(E)-3-(1-methyl-3-pyrrolinio)-1-propen-1-yl]-3-cephem-4-carboxylate] | 0.22 (≈ 0.374 µM) | 0.037 (≈ 0.0629 µM) | 4 (≈ 6.8 µM) | 1.5 (≈ 2.55 µM) | 2.4 (≈ 4.08 µM) | 0.17 (≈ 0.289 µM)
18 | CSc1scc[n+]1C/C=C/C1=C(C(=O)[O-])N2C(=O)C(NC(=O)/C(=N\OC3(C(=O)O)CCC3)c3csc(N)n3)[C@H]2SC1 (stereo partly shown) [Compound I-5G, 7-[(Z)-2-(2-Aminothiazol-4-yl)-2-(1-carboxycyclobut-1-oxyimino)acetamido]-3-[(E)-3-(2-methylthio-3-thiazolio)-1-propen-1-yl]-3-cephem-4-carboxylate] | – | 0.014 (≈ 0.022 µM) | 2.8 (≈ 4.4 µM) | 0.84 (≈ 1.32 µM) | 1.9 (≈ 2.98 µM) | 0.13 (≈ 0.204 µM)
